According to EPA's ToxRefDB 2:

Columns and labels:
mouse [1] = settings: Subchronic oral toxicity in rodents, b6c3f1, Feed, dose end: 14 week
rat [2] = settings: Developmental neurotoxicity study; sprague dawley; Oral; Gavage/Intubation; dose end: 91 PND; group: cannot be grouped; systemic / in life observation / body weight / offspring (pup) weight
rat [3] = settings: Subchronic oral toxicity in rodents, fischer, Feed, dose end: 14 week, group: systemic, systemic / organ weight / liver / absolute + systemic / organ weight / liver / relative to body weight + systemic / hematology / platelet / …
rat [4] = settings: Carcinogenicity; fischer; Oral; Feed; dose end: 104 week; group: systemic; systemic / pathology microscopic / liver / hypertrophy + systemic / pathology microscopic / liver / vacuolization cytoplasmic + systemic / …
mouse [5] = settings: Carcinogenicity; b6c3f1; Oral; Feed; dose end: 105 week; group: systemic; systemic / pathology microscopic / liver / eosinophilic focus + systemic / pathology microscopic / liver / hypertrophy + systemic / …
rat [6] = settings: Prenatal developmental toxicity study, wistar, Oral, Gavage/Intubation, dose end: 19 GD
mouse [7] = settings: Carcinogenicity; cd1; Oral; [Not Specified]; dose end: 18 month; group: systemic; systemic / in life observation / body weight / body weight + systemic / in life observation / body weight / body weight gain
rat [8] = settings: Multigenerational reproductive toxicity study, sprague dawley, Oral, Feed, dose end: 2 generation
dog = settings: Chronic toxicity; beagle; Oral; Feed; dose end: 24 month; group: systemic; systemic / in life observation / body weight / body weight gain + systemic / in life observation / food consumption / food efficiency + …
rat [9] = settings: Multigenerational reproductive toxicity study, sprague dawley, Oral, Gavage/Intubation, dose end: 2 generation
rat [10] = settings: Subchronic oral toxicity in rodents, sprague dawley, Feed, dose end: 13 week, group: systemic, systemic / in life observation / body weight / body weight + systemic / in life observation / body weight / body weight gain + systemic / in…
rat [11] = settings: Combined chronic toxicity/carcinogenicity, sprague dawley, Oral, Feed, dose end: 24 month, group: systemic
[12] = group: maternal, reproductive / reproductive performance / estrous cycle / length
[13] = group: systemic, systemic / in life observation / clinical signs / ataxia + systemic / in life observation / clinical signs / lethargy + systemic / in life …
[14] = group: developmental, developmental / developmental malformation / bone / incomplete ossification
[15] = group: developmental, developmental / developmental malformation / bone / incomplete ossification + systemic / in life observation / body weight / fetal weight
[16] = group: maternal, systemic / in life observation / mortality / mortality + reproductive / offspring survival early / dead fetuses / dead fetuses
[17] = group: maternal, systemic / in life observation / mortality / mortality + reproductive / reproductive performance / postimplantation loss / postimplantation …
[18] = group: parental, systemic / in life observation / body weight / body weight
[19] = group: reproductive, reproductive / reproductive performance / gestational length / gestational length
[20] = group: offspring, developmental / offspring survival late / lactation index / lactation index + developmental / offspring survival late / viability index / …
[21] = group: parental, systemic / in life observation / clinical signs / salivation + systemic / in life observation / body weight / body weight gain + systemic / …
[22] = group: reproductive, reproductive / offspring survival early / litter size / litter size
[23] = systemic / in life observation / body weight / body weight + systemic / in life observation / body weight / body weight gain + systemic / in…

## CCC1(c2ccccc2)C(=O)NCNC1=O [Primidone]
Mouse [1]; [12]
  LEL: 220 mg/kg/day
  LOAEL: > 1100 mg/kg/day
  NEL: 120 mg/kg/day
  NOAEL: ≥ 1100 mg/kg/day
Mouse [1]; [13]
  LOAEL: > 1000 mg/kg/day
  NEL: 50 mg/kg/day
  NOAEL: ≥ 1000 mg/kg/day
Mouse [1]; group: systemic, systemic / organ weight / liver / absolute + systemic / organ weight / liver / relative to body weight + systemic / pathology microscopic / …
  LEL: 100 mg/kg/day
Rat [2]
  LEL: 40 mg/kg/day
  LOAEL: > 80 mg/kg/day
  NEL: < 40 mg/kg/day
  NOAEL: ≥ 80 mg/kg/day
Rat [3]
  LEL: 20 mg/kg/day
  LOAEL: > 400 mg/kg/day
  NEL: < 20 mg/kg/day
  NOAEL: ≥ 400 mg/kg/day
Rat [4]
  LEL: 25 mg/kg/day
  LOAEL: 25 mg/kg/day
  NEL: < 25 mg/kg/day
  NOAEL: < 25 mg/kg/day
Mouse [5]
  LEL: 25 mg/kg/day
  LOAEL: 25 mg/kg/day
  NEL: < 25 mg/kg/day
  NOAEL: < 25 mg/kg/day

## CCCOC(=O)NCCCN(C)C.Cl [Propamocarb hydrochloride]
Rat [6]; [14]
  LEL: 740 mg/kg/day
  LOAEL: 740 mg/kg/day
Rat [6]; [15]
  NEL: 221 mg/kg/day
  NOAEL: 221 mg/kg/day
Rat [6]; [16]
  LEL: 740 mg/kg/day
  LOAEL: 740 mg/kg/day
Rat [6]; [17]
  NEL: 221 mg/kg/day
  NOAEL: 221 mg/kg/day
Mouse [7]
  LEL: 95 mg/kg/day
  LOAEL: 95 mg/kg/day
  NEL: 12 mg/kg/day
  NOAEL: 12 mg/kg/day
Rat [8]; group: offspring, systemic / in life observation / body weight / offspring (pup) weight
  LOAEL: 485 mg/kg/day
Rat [8]; group: offspring, systemic / in life observation / body weight / offspring (pup) weight + systemic / organ weight / brain / relative to body weight + systemic…
  NOAEL: 75.4 mg/kg/day
Rat [8]; group: offspring, systemic / organ weight / brain / absolute
  LEL: 85.3 mg/kg/day
Rat [8]; group: offspring, systemic / organ weight / brain / absolute + systemic / in life observation / body weight / offspring (pup) weight + systemic / organ weight…
  NEL: 14.2 mg/kg/day
Rat [8]; [18]
  LEL: 407 mg/kg/day
  LOAEL: 407 mg/kg/day
  NEL: 65.4 mg/kg/day
  NOAEL: 65.4 mg/kg/day
Rat [8]; [19]
  LEL: 467 mg/kg/day
  LOAEL: > 467 mg/kg/day
  NEL: 76.8 mg/kg/day
  NOAEL: ≥ 467 mg/kg/day
dog
  LEL: 22.8 mg/kg/day
  LOAEL: 22.8 mg/kg/day
  NEL: < 22.8 mg/kg/day
  NOAEL: < 22.8 mg/kg/day
Rat [9]; [20]
  LEL: 1000 mg/kg/day
  LOAEL: 1000 mg/kg/day
  NEL: 200 mg/kg/day
  NOAEL: 200 mg/kg/day
Rat [9]; [21]
  LEL: 200 mg/kg/day
  LOAEL: 1000 mg/kg/day
  NEL: 50 mg/kg/day
  NOAEL: 200 mg/kg/day
Rat [9]; [22]
  LEL: 1000 mg/kg/day
  LOAEL: 1000 mg/kg/day
  NEL: 200 mg/kg/day
  NOAEL: 200 mg/kg/day
Rat [10]
  LEL: 716 mg/kg/day
  LOAEL: 716 mg/kg/day
  NEL: 363 mg/kg/day
  NOAEL: 363 mg/kg/day
Rat [11]; [23]
  LEL: 682 mg/kg/day
  LOAEL: 682 mg/kg/day
  NOAEL: 84 mg/kg/day
Rat [11]; systemic / pathology microscopic / brain / vacuolization
  NEL: 84 mg/kg/day
